Measured values from PubChem BioAssay (NCI).
Where “and” joins values, the source holds several entries; their conditions need not be identical. Equal values may be shown once.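 Exposure lasted 48 hours, with cells grown in 96-well plates and compounds tested at five concentrations. The concentration for 50% growth inhibition is given as GI50. TGI: total growth inhibition.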

Experiments:
Assay in all cases: growth of human tumour cells (NCI), 48 h
UO-31 renal = tested on: UO-31 renal
IGROV1 ovarian = tested on: IGROV1 ovarian
MDA-MB-231 breast = tested on: MDA-MB-231 breast
OVCAR-4 ovarian = tested on: OVCAR-4 ovarian
ACHN renal = tested on: ACHN renal
A549 NSCLC = tested on: A549 NSCLC
HCC-2998 colon = tested on: HCC-2998 colon
SF-295 CNS = tested on: SF-295 CNS
SR leukemia = tested on: SR leukemia
K-562 leukemia = tested on: K-562 leukemia

Row | Structure (SMILES) | GI50 (UO-31 renal) | TGI (UO-31 renal) | GI50 (IGROV1 ovarian) | TGI (IGROV1 ovarian) | GI50 (MDA-MB-231 breast) | TGI (MDA-MB-231 breast) | GI50 (OVCAR-4 ovarian) | TGI (OVCAR-4 ovarian) | GI50 (ACHN renal) | TGI (ACHN renal) | GI50 (A549 NSCLC) | TGI (A549 NSCLC) | GI50 (HCC-2998 colon) | TGI (HCC-2998 colon) | GI50 (SF-295 CNS) | TGI (SF-295 CNS) | GI50 (SR leukemia) | TGI (SR leukemia) | GI50 (K-562 leukemia) | TGI (K-562 leukemia)
1 | CC(=O)N[C@@H](Cc1ccc(OP(=O)(O)O)cc1)C(=O)N[C@H]1CCC(=O)N2CCC[C@@H](C(=O)NCc3cccc4ccccc34)N2C1=O | > 25 µM | > 25 µM | > 25 µM | > 25 µM | > 25 µM | > 25 µM | > 25 µM | > 25 µM | > 25 µM | > 25 µM | > 25 µM | > 25 µM | > 25 µM | > 25 µM | > 25 µM | > 25 µM | > 25 µM | > 25 µM | > 25 µM | > 25 µM
2 | Nc1nc(N)c2cc(Sc3ccc(Cl)cc3)ccc2n1 | 2.43 µM | 16.1 µM | 0.874 µM | 18.7 µM | 1.72 µM | 4.21 µM | 3.91 µM | 18.9 µM | 0.666 µM | 16.4 µM | 0.254 µM | 12.9 µM | 1.08 µM | 2.43 µM | 0.63 µM | 15.2 µM | 1.37 µM | 5.43 µM | 0.286 µM | 1.86 µM
3 | CCN1C2=C(SC(=S)C1=C1SC(C(=O)c3ccccc3)=C(C(=O)c3ccccc3)S1)SC(=Nc1ccccc1)C2=O | 5.9 µM | > 100 µM | 23 µM | > 100 µM | 13.6 µM | > 100 µM | > 100 µM | > 100 µM | 37.3 µM | > 100 µM | > 100 µM | > 100 µM | > 100 µM | > 100 µM | 11.3 µM | > 90.7 µM | 3.19 µM | > 100 µM | 4.91 µM | > 100 µM
4 | Clc1ccc(Nc2ncnc3ccccc23)cc1 | 61 µM | > 100 µM | 12.9 µM | > 100 µM | > 100 µM | > 100 µM | > 100 µM | > 100 µM | 11.1 µM | 71.7 µM | 47.6 µM | > 100 µM | > 100 µM | > 100 µM | 37.9 µM | > 100 µM | 23 µM | 60.9 µM | 28 µM | > 100 µM
5 | COc1ncnn2ccc(-c3cnc4nc(C)n(Cc5nnc(C(C)F)o5)c4c3)c12 (centres undefined) |  |  | 0.235 µM | > 64.3 µM | 0.278 µM | 27 µM | 0.278 µM | 0.995 µM | 0.24 µM | > 100 µM | 0.136 µM | > 100 µM | 0.308 µM | 2.71 µM | 0.326 µM | 8.04 µM | 0.156 µM | 16 µM | 0.163 µM | > 100 µM
6 | Nc1n[nH]c2ccc([C@H]3[C@@H]4C5CCC(C5)[C@@H]4c4c(ccc5[nH]ncc45)N3S(=O)(=O)C3CC3)cc12 (some centres undefined) | 0.298 µM | 29.2 µM | 0.269 µM | > 38.7 µM | 0.322 µM | 12.4 µM | 2.63 µM | > 50 µM | 0.346 µM | 22.5 µM | 0.237 µM | > 25.6 µM | 0.199 µM | 8.42 µM | 0.136 µM | 1.32 µM | 0.15 µM |  | 0.115 µM | 
7 | CCOC(=O)Nc1nc(-c2ccccc2)c(C)s1 |  | > 100 µM |  | > 100 µM |  | > 100 µM |  | > 100 µM |  | > 100 µM |  | > 100 µM |  | > 100 µM |  | > 100 µM |  | > 100 µM |  | > 100 µM
8 | CN(CCNc1ccc(C(=N)N)cc1)c1ccc(C(=N)N)cc1 | 54.8 µM | > 100 µM | 68.8 µM | > 100 µM | > 100 µM | > 100 µM | 66 µM | > 100 µM | > 100 µM | > 100 µM | 0.249 µM | > 100 µM | 97.3 µM | > 100 µM | 5.8 µM | 60.2 µM | 28.6 µM | > 100 µM | 27.6 µM | > 100 µM
9 | Nc1ncnc2occ(-c3ccc(NC(=O)Nc4cc(C(F)(F)F)ccc4F)cc3)c12 | 4.72 µM and 1.48 µM | 14.1 µM and 7.88 µM | 3.82 µM and 1.27 µM | 14.1 µM and 7.18 µM | 7.93 µM and 3.8 µM | 23.1 µM and 12.4 µM | 4.2 µM and 2.36 µM | 17.1 µM and 14.6 µM | 4.17 µM and 2.9 µM | 18.8 µM and 16.4 µM | 6.44 µM and 3.16 µM | 18.8 µM and 11.5 µM | 8.02 µM and 3.98 µM | 19 µM and 8.87 µM | 4.97 µM and 3.23 µM | 16.3 µM and 9.43 µM | 2.15 µM and 1.05 µM | 11.7 µM and > 25 µM | 2.18 µM and 0.972 µM | 19 µM and > 25 µM
10 | NNC(=S)N/N=C/c1ccccn1 | 3.99 µM | > 100 µM | 3.05 µM | > 100 µM | 0.699 µM | > 100 µM | 1.67 µM | > 100 µM | 1.71 µM | > 100 µM | 3.14 µM | > 100 µM | 3.12 µM | > 100 µM | 3.06 µM | > 100 µM | 0.884 µM | 90.1 µM | 2.64 µM | > 100 µM
11 | Nc1cc2c(c3ccccc13)C(CCl)CN2C(=O)c1cc2cc(NC(=O)c3cc4ccccc4o3)ccc2[nH]1 (centres undefined) |  |  |  |  | > 0.11 µM | > 1100 µM |  |  | 0.000208 µM |  |  |  |  | 0.675 µM |  |  | > 0.11 µM | 200 µM |  | 
12 | CO[C@@H]1[C@H](N(C)C(=O)c2ccccc2)C[C@@H]2O[C@]1(C)n1c3ccccc3c3c4c(c5c6ccccc6n2c5c31)C(=O)NC4=O | 0.211 µM | 1.46 µM | 0.523 µM | > 100 µM | 0.48 µM | > 100 µM | 0.7 µM | > 100 µM | 0.838 µM | > 100 µM | 0.595 µM | > 100 µM | > 100 µM | > 100 µM | 1.45 µM | > 100 µM | 0.504 µM | > 100 µM | 11.1 µM | > 100 µM
13 | CSc1nc(SC)c2c(C)cn(Cc3ccccc3)c2n1 |  | > 100 µM |  | > 100 µM |  | > 100 µM |  | > 100 µM |  | > 100 µM |  | > 100 µM |  | > 100 µM |  | > 100 µM |  | > 100 µM |  | 
14 | C#CCOCCCC(=O)O |  |  |  | > 100 µM |  | > 100 µM |  | > 100 µM |  | > 100 µM |  | > 100 µM |  |  |  | > 100 µM |  | > 100 µM |  | > 100 µM
